Source: PubChem BioAssay AID651642 (Sanford-Burnham Center for Chemical Genomics, 2012)
pIC50: −log10 of the molar value.

Key:
H9c2 = test: cardiomyocyte survival under oxidative or metabolic stress – cell-based, panel, H9c2 and HL-1, H2O2, 2-deoxyglucose, ATP luminescence, SAR follow-up (AID 651642)
HL-1 = test: as above
[1] = H9c2/HL-1 cardiomyocyte 2-deoxyglucose damage, mean of runs, with 2-deoxyglucose, mean IC50 across panel
[2] = H9c2/HL-1 cardiomyocyte 2-deoxyglucose damage, run 1, with 2-deoxyglucose
[3] = H9c2/HL-1 cardiomyocyte 2-deoxyglucose damage, run 2, with 2-deoxyglucose
[4] = H9c2/HL-1 cardiomyocyte 2-deoxyglucose damage, run 3, with 2-deoxyglucose
[5] = H9c2/HL-1 cardiomyocyte 2-deoxyglucose damage, run 4, with 2-deoxyglucose
[6] = H9c2/HL-1 cardiomyocyte H2O2 oxidative damage, mean of runs, with H2O2, mean IC50 across panel
[7] = H9c2/HL-1 cardiomyocyte H2O2 oxidative damage, run 1, with H2O2
[8] = H9c2/HL-1 cardiomyocyte H2O2 oxidative damage, run 2, with H2O2
[9] = H9c2/HL-1 cardiomyocyte H2O2 oxidative damage, run 3, with H2O2
[10] = H9c2/HL-1 cardiomyocyte H2O2 oxidative damage, run 4, with H2O2

SMILES	pIC50 (H9c2; [1])	pIC50 (H9c2; [2])	pIC50 (H9c2; [3])	pIC50 (H9c2; [4])	pIC50 (H9c2; [5])	pIC50 (H9c2; [6])	pIC50 (H9c2; [7])	pIC50 (H9c2; [8])	pIC50 (H9c2; [9])	pIC50 (H9c2; [10])	pIC50 (HL-1; [1])	pIC50 (HL-1; [2])	pIC50 (HL-1; [3])	pIC50 (HL-1; [4])	pIC50 (HL-1; [5])	pIC50 (HL-1; [6])	pIC50 (HL-1; [7])	pIC50 (HL-1; [8])	pIC50 (HL-1; [9])	pIC50 (HL-1; [10])
COc1cc(-c2cc(C(=O)NCC(=O)Nc3cccc(C(C)=O)c3)c3ccccc3n2)cc(OC)c1OC	5.09	5.03	5.01	5.21	5.13	5.79	5.78	5.58	6.00	5.95	5.21	5.56	5.50	5.05	5.01	5.20	5.35	5.04	5.34	5.15
COc1cc(-c2cc(C(=O)Nc3cccc(C(C)=O)c3)c3cc(F)ccc3n2)cc(OC)c1OC	< 4.10	< 4.10	< 4.10	< 4.10	< 4.10	5.16	5.27	5.14	5.34	4.98	< 4.10	< 4.10	< 4.10	< 4.10	< 4.10	5.43	5.60	5.43	5.48	5.28
COc1cc(-c2cc(C(=O)NCC(=O)Nc3cccc(C(C)=O)c3)c3cc(C)ccc3n2)cc(OC)c1OC		< 4.10	< 4.10	4.70	4.61	5.00	4.90	4.87	5.23	5.07	4.64	4.87	4.83	4.53	4.47	4.43	4.46	4.35	4.59	4.37
COc1ccc2nc(-c3cc(OC)c(OC)c(OC)c3)cc(C(=O)NCC(=O)Nc3ccc(C(C)=O)cc3)c2c1	5.28	5.18	5.14	5.44	5.44	5.82	5.71	5.70	6.03	5.91	5.36	5.61	5.52	5.33	5.14	5.24	5.21	5.13	5.35	5.28
COc1ccc2c(c1OC)C(=O)N1c3ccccc3C(=O)N(Cc3ccc(C)cc3)C21 (stereo unspecified)	< 4.10	< 4.10	< 4.10	< 4.10	< 4.10		< 4.10	5.16	< 4.10	< 4.10		4.94	4.63	< 4.10	< 4.10		< 4.10	< 4.10	< 4.10	< 4.10
COc1ccc2c(c1OC)C(=O)N1c3ccccc3C(=O)N(Cc3cccc(Br)c3)C21 (stereo unspecified)	< 4.10	< 4.10	< 4.10	< 4.10	< 4.10		5.65	5.42	< 4.10	< 4.10	5.13	5.30	5.25	5.10	4.95	< 4.10	< 4.10	< 4.10	< 4.10	< 4.10
COC(=O)CNC(=O)c1cccc(NC(=O)c2cc(-c3cc(OC)c(OC)c(OC)c3)nc3ccccc23)c1	5.12	5.05	5.03	5.24	5.20		< 4.10	5.77	< 4.10	< 4.10	5.71	5.90	5.85	5.63	5.54	5.37	5.59	5.46	5.33	5.20
COc1ccc2c(c1OC)C(=O)N1c3ccccc3C(=O)N(Cc3ccccc3C)C21 (stereo unspecified)	4.79	4.77	4.74	4.86	4.79		5.88	5.58	< 4.10	< 4.10	5.52	5.78	5.72	5.42	5.33	< 4.10	< 4.10	< 4.10	< 4.10	< 4.10
COc1ccc2c(c1OC)C(=O)N1c3ccccc3C(=O)N(Cc3ccccc3Cl)C21 (stereo unspecified)	4.80	4.77	4.70	4.92	4.85		6.25	6.13	< 4.10	< 4.10	5.64	5.98	5.81	5.57	5.40	< 4.10	< 4.10	< 4.10	< 4.10	< 4.10
COc1ccc2c(c1OC)C(=O)N1c3ccccc3C(=O)N(Cc3cccc(F)c3)C21 (stereo unspecified)	< 4.10	< 4.10	< 4.10	< 4.10	< 4.10		5.94	5.81	< 4.10	< 4.10	5.18	5.46	5.37	5.04	5.03	< 4.10	< 4.10	< 4.10	< 4.10	< 4.10
CCOC(=O)c1ccc(NC(=O)c2cc(-c3cc(OC)c(OC)c(OC)c3)nc3ccccc23)cc1	< 4.10	< 4.10	< 4.10	< 4.10	< 4.10		< 4.10	4.67	< 4.10	< 4.10	< 4.10	< 4.10	< 4.10	< 4.10	< 4.10	< 4.10	< 4.10	< 4.10	< 4.10	< 4.10
CCOC(=O)c1cccc(NC(=O)c2cc(-c3cc(OC)c(OC)c(OC)c3)nc3cc(Cl)ccc23)c1	< 4.10	< 4.10	< 4.10	< 4.10	< 4.10		< 4.10	4.51	< 4.10	< 4.10	< 4.10	< 4.10	< 4.10	< 4.10	< 4.10		< 4.10	< 4.10	5.19	5.17
COc1cc(-c2cc(C(=O)Nc3cccc(C(C)=O)c3)c3cc(Br)ccc3n2)cc(OC)c1OC	< 4.10	< 4.10	< 4.10	< 4.10	< 4.10		< 4.10	4.98	< 4.10	< 4.10	< 4.10	< 4.10	< 4.10	< 4.10	< 4.10		< 4.10	5.00	5.59	5.55
